Measurements as given in US4354039A, “Chlorocitric acids” (Hoffmann-La Roche Inc., priority 1981, dated 1982).
Values joined by “and” are separate entries in the source; they are usually repeats but may differ in a detail not shown here. Equal entries are not always repeated. Where two headings read alike, the source gives them in different places.

What was measured:
[1] = Effect on stomach emptying, [14C] glucose load (Example 25); assay type: in vivo, Rats; settings: 0.33 mmoles/kg oral, 60 min after [14C] glucose load
Method: Rats were trained to consume a 3 hr 70% glucose meal from 8 a.m. to 11 a.m. daily. On the experimental day, compounds were administered orally by intubation 30 min before a [^14 C] glucose load was given also by intubation. […] Sixty minutes later the rats were killed by decapitation; blood and stomachs were collected on ice.
Data are expressed as follows: dpm×10^3 per ml of serum and dpm×10^3 per stomach.

isolated rat hepatocytes = test: Fatty acid and cholesterol synthesis and CO2 production in isolated hepatocytes (Example 23); assay type: cell-based, Female Charles River rats; settings: for activity at 2000 µM: Rattus norvegicus, Hepatocyte, 1 h
Method: Female Charles River rats were fasted 48 hr, then meal-fed a 1% corn oil, 70% glucose diet for 7 to 14 days from 8 to 11 a.m. The isolated rat hepatocytes were prepared by perfusing the liver in situ. The hepatocytes were incubated in an oscillating water bath at 37° C. for 60 min. […] All incubations were done in triplicate and all experiments were repeated at least twice. […] The contents of the center well were transferred to scintillation counting fluid and ^14 CO2 content was determined. […] The media was then acidified, extracted with hexane, and the extract counted (to determine the rate of lipogenesis). The conversion of ^3 H2 O and [^14 C]alanine into fatty acids or sterols was determined in a PDS/3, Mark II liquid scintillation counting system.

[2] = Anorectic activity, acute, pyramiding dose and chronic studies (summary statements); assay type: in vivo, mammals; settings: in words
[3] = Food intake in dogs, pyramiding oral doses (Examples 26 and 27); assay type: in vivo, beagle dogs
Method: Twelve beagle dogs of both sexes weighing 7.6-12.2 kg were used for this test. The test compounds were contained in gelatin capsules for oral administration to two dogs of each sex. The animals were weighed and food consumption calculated daily excluding weekends throughout the test period. Each animal received 800 grams of diet daily consisting of 400 grams of Wayne pellet dog food mixed with 400 ml distilled water. The animals received pyramiding oral doses of the test compound over the three week period. On Monday and Tuesday of the first week the animals were weighed and food consumption was recorded (control). […] Doses of 30, 100 and 300 mg/kg were administered on Monday, Wednesday and Friday respectively during the second week. A final dose of 1000 mg/kg was administered on Monday of the third week.
Food intake was determined by the procedure at pyramiding doses described in EXAMPLE 26.

[4] = Effect of stereoisomers on food consumption of meal-fed rats (Example 14); assay type: in vivo, Charles River female rats
Method: Animals were fasted 48 hr, then meal-fed the 70% glucose diet described by A. C. […] Following 5 to 12 days alimentation on the meal-feeding regimen, rats were dosed with the appropriate compounds orally by intubation 1/2 hr before the 3 hr meal. Food cups were weighed immediately after the meal. The control group consisted of 5 to 10 rats, while the experimental group consisted of 4 to 6 rats.

[5] = Total body fat in meal-fed rats, oral, 17 day study (Example 22); assay type: in vivo, Charles River female rats; settings: Chow, 17 days
Method: Two month old Charles River female rats (Charles River Breeding Laboratories, Wilmington, Mass.) were individually housed in wire-bottomedcages in a temperature-regulated (22° C.) light-controlled room (12 hr light, 6 a.m. to 6 p.m. and 12 hr dark, 6 p.m. to 6 a.m.). […] On the 8th day, the animals were administered water or (-)-threo-chlorocitric acid at the indicated concentration by oral intubation 30 min before the 3 hr meal. Treatment was continued for 17 days. Food cups were weighed immediately after the meal. After 17 days of treatment, rats were killed by decapitation and blood was removed. […] C. Sullivan, et al, Am. J. Clinical Nutrition, 30 767 (1977). […] Total carcass and lipid data are expressed in grams and percentages of carcass weight.

[6] = Body weight and food intake in meal-fed rats, 16 day study (Example 19); assay type: in vivo, Charles River female rats; settings: baseline
Method: Two month old Charles River female rats (Charles River Breeding Laboratories, Wilmington, Mass.) were individually housed in wire-bottomedcages in a temperature-regulated (22° C.) light-controlled room (12 hr light, 6 a.m. to 6 p.m. and 12 hr dark, 6 p.m. to 6 a.m.). […] (1) control, (2) (-)-threo-chlorocitric acid (1.0 mmoles/kg, 227 mg/kg) administered by oral intubation 30 min before the 3 hr meal, and (3) (-)-threo-chlorocitric acid (1.1 mmoles/kg, 250 mg/kg) as a dietary admixture for the 3 hr meal. Treatment was continued for 16 days. The amount of body weight gained and food consumed during the study were determined.

[7] = test day 8, dose 100 mg/kg oral
[8] = test day 10, dose 300 mg/kg oral
[9] = test day 13, dose 1000 mg/kg oral

SMILES: O=C(O)C[C@@](O)(C(=O)O)[C@@H](Cl)C(=O)O [(-)-threo-Chlorocitric acid]
- Serum, % of control [1]: 33 % of control
- Stomach Contents, % of control [1]: 312 % of control
- CO2 Production, [14C]alanine converted (isolated rat hepatocytes; 2 mM, 60 min, 37° C., 2000 µM): 91 % of control
- Cholesterol Synthesis, [14C]alanine converted (isolated rat hepatocytes; 2 mM, 60 min, 37° C., 2000 µM): 92 % of control
- Fatty Acid Synthesis, 3H2O converted (isolated rat hepatocytes; 2 mM, 60 min, 37° C., 2000 µM): 95 % of control
- Fatty Acid Synthesis, [14C]alanine converted (isolated rat hepatocytes; 2 mM, 60 min, 37° C., 2000 µM): 124 % of control and 96 % of control
- activity at 2000 µM (isolated rat hepatocytes; 2 mM, 60 min, 37° C., read-out: CO2 Production, [14C]alanine converted): 83%
- activity at 2000 µM (isolated rat hepatocytes; 2 mM, 60 min, 37° C., read-out: Cholesterol Synthesis, 3H2O converted): 116%
- activity at 2000 µM (isolated rat hepatocytes; 2 mM, 60 min, 37° C., read-out: Cholesterol Synthesis, [14C]alanine converted): 88%
- activity at 2000 µM (isolated rat hepatocytes; 2 mM, 60 min, 37° C., read-out: Fatty Acid Synthesis, 3H2O converted): 106%
- inhibition of lipid (fatty acid) and cholesterol syntheses (isolated rat hepatocytes; in words): devoid of metabolic activity as an inhibitor of lipid and cholesterol syntheses
- activity in the acute meal-fed assay utilizing three diets and in pyramiding dose studies, reduction in food consumption [2]: significantly more active
- appetite suppression and reduction of body weight gain ([2]; short- and long-term chronic studies): suppressed appetite and reduced body weight gain in mammals more efficaciously than hydroxycitric acid or citric acid
- Food Consumption ([3]; test day 1, dose 3 mg/kg oral): 450 ± 165 g
- Food Consumption, % of control ([3]; test day 1, dose 3 mg/kg oral): 60 % of control
- Food Consumption ([3]; test day 2, no dose): 646 ± 83 g
- Food Consumption, % of control ([3]; test day 2, no dose): 87 % of control
- Food Consumption ([3]; test day 3, dose 10 mg/kg oral): 440 ± 121 g
- Food Consumption, % of control ([3]; test day 3, dose 10 mg/kg oral): 59 % of control
- Food Consumption ([3]; test day 6, dose 30 mg/kg oral): 406 ± 86 g
- Food Consumption, % of control ([3]; test day 6, dose 30 mg/kg oral): 55 % of control
- Food Consumption ([3]; test day 7, no dose): 668 ± 115 g
- Food Consumption, % of control ([3]; test day 7, no dose): 90 % of control
- Food Consumption [3, 7]: 142 ± 38 g
- Food Consumption, % of control [3, 7]: 19 % of control
- Food Consumption ([3]; test day 9, no dose): 619 ± 62 g
- Food Consumption, % of control ([3]; test day 9, no dose): 83 % of control
- Food Consumption [3, 8]: 55 ± 39 g
- Food Consumption, % of control [3, 8]: 7 % of control
- Food Consumption [3, 9]: 56 ± 22 g
- Food Consumption, % of control [3, 9]: 8 % of control
- Food Consumption ([3]; test day 14, no dose): 439 ± 163 g
- Food Consumption, % of control ([3]; test day 14, no dose): 59 % of control
- Food Consumption ([3]; test day 15, no dose): 583 ± 149 g
- Food Consumption, % of control ([3]; test day 15, no dose): 78 % of control
- Food Consumption ([3]; test day 16, no dose): 600 ± 76 g
- Food Consumption, % of control ([3]; test day 16, no dose): 81 % of control
- Food Consumption ([3]; test day 17, no dose): 677 ± 73 g
- Food Consumption, % of control ([3]; test day 17, no dose): 91 % of control
- Food Consumption ([3]; test day 21, no dose): 644 ± 100 g
- Food Consumption, % of control ([3]; test day 21, no dose): 87 % of control
- Food Consumption ([3]; test day 22, no dose): 800 ± 0 g
- Food Consumption, % of control ([3]; test day 22, no dose): 108 % of control
- Food Consumption ([3]; test day 23, no dose): 596 ± 121 g
- Food Consumption, % of control ([3]; test day 23, no dose): 80 % of control
- Food Consumption ([3]; test day 24, no dose): 695 ± 79 g
- Food Consumption, % of control ([3]; test day 24, no dose): 94 % of control
- Food Consumption ([3]; test day 27, no dose): 732 ± 68 g
- Food Consumption, % of control ([3]; test day 27, no dose): 99 % of control
- Food Consumption ([3]; test day 28, no dose): 775 ± 26 g
- Food Consumption, % of control ([3]; test day 28, no dose): 104 % of control
- Food Consumption, % of control ([4]; 0.66 mmoles/kg oral): 59 % of control
- Food Consumption, % of control ([4]; 2.63 mmoles/kg oral): 16 % of control
- Carcass Lipid % carcass, % of control ([5]; 0.25 mmoles (57 mg)/kg oral): 99 % of control
- Carcass Lipid total, % of control ([5]; 0.25 mmoles (57 mg)/kg oral): 101 % of control
- Carcass Lipid, % carcass ([5]; 0.25 mmoles (57 mg)/kg oral): 4.56 ± 0.42 % carcass
- Carcass Lipid, total ([5]; 0.25 mmoles (57 mg)/kg oral): 9.64 ± 0.80 g
- Carcass Weight ([5]; 0.25 mmoles (57 mg)/kg oral): 213 ± 4 g
- Carcass Lipid % carcass, % of control ([5]; 0.50 mmoles (114 mg)/kg oral): 58 % of control
- Carcass Lipid total, % of control ([5]; 0.50 mmoles (114 mg)/kg oral): 50 % of control
- Carcass Lipid, % carcass ([5]; 0.50 mmoles (114 mg)/kg oral): 2.70 ± 0.17 % carcass
- Carcass Lipid, total ([5]; 0.50 mmoles (114 mg)/kg oral): 4.80 ± 0.48 g
- Carcass Weight ([5]; 0.50 mmoles (114 mg)/kg oral): 173 ± 4 g
- Carcass Lipid % carcass, % of control ([5]; 1.00 mmoles (227 mg)/kg oral): 52 % of control
- Carcass Lipid total, % of control ([5]; 1.00 mmoles (227 mg)/kg oral): 41 % of control
- Carcass Lipid, % carcass ([5]; 1.00 mmoles (227 mg)/kg oral): 2.40 ± 0.22 % carcass
- Carcass Lipid, total ([5]; 1.00 mmoles (227 mg)/kg oral): 3.92 ± 0.37 g
- Carcass Weight ([5]; 1.00 mmoles (227 mg)/kg oral): 163 ± 7 g
- IBW, initial body weight ([6]; dietary admixture 1.1 mmoles (250 mg)/kg/day): 192 ± 5 g
- IBW, initial body weight ([6]; oral intubation 1.0 mmoles (227 mg)/kg/day): 189 ± 3 g
